Assay [1] has as its target T1, iNOS (Mus musculus, UniProt P29477).
T1 construct: stimulated macrophages that produce iNOS; endogenous in cells; host or cells: primary mouse macrophages (from femur), LPS-stimulated, DAHP-treated
Kind of assay: Macrophage assay (iNOS), macrophages depleted of tetrahydrobiopterin by DAHP. In kind it is cell-based.

Assay [2] concerns rat aorta. Kind of assay: BH4 depleted (DAHP) rat aorta relaxation. To be noted: DAHP 10^-2 M for 6 h, tetrahydrobiopterin depleted. The procedure:
Rat pulmonary artery or aorta rings (as above) were placed in 15 ml tubes containing 2-3 ml of MEM (minimal essential medium) solution containing 0.1% bovine serum albumin, 100 U/ml penicillin and […] streptomycin. Some of the tubes in addition received diamino-hydroxy-pyrimidine (DAHP) 10^−2 M, an inhibitor of GTP cyclohydrolase, the rate-limiting step in tetrahydrobiopterin synthesis. The tubes were incubated at 37° C. for six hours. […] After the incubation with DAHP or the control incubation with the medium (MEM) alone, the rings were removed and then their relaxation in response to the analogue (or solvent NH4OH) was tested as above. Dose response curves of DAHP-treated tissues were compared to the control tissues treated in MEM alone for 6 hrs. The results are shown graphically in FIGS. 3 and 4. The above procedures were used to mimic cardiovascular disease, by treating aorta and pulmonary artery rings with an inhibitor of the enzyme GTP cyclohydrolase, which is the rate-limiting step in the formation of tetrahydrobiopterin by cells. Treatment with this inhibitor, DAHP, for 6 hours reduced endogenous tetrahydrobiopterin levels in arteries to 4% of the normal content. […] This was found in both pulmonary artery and aorta (FIGS. 3 and 4). […] The only effect seen was a contraction—the opposite to the action of WSG1002—at the highest concentration of tetrahydrobiopterin. […]

In assay [3] the test system is rat pulmonary artery. Nature of the assay: BH4 depleted (DAHP) rat pulmonary artery relaxation. On the procedure: Rat pulmonary artery or aorta rings (as above) were placed in 15 ml tubes containing 2-3 ml of MEM (minimal essential medium) solution containing 0.1% bovine serum albumin, 100 U/ml penicillin and […] streptomycin. Some of the tubes in addition received diamino-hydroxy-pyrimidine (DAHP) 10^−2 M, an inhibitor of GTP cyclohydrolase, the rate-limiting step in tetrahydrobiopterin synthesis. The tubes were incubated at 37° C. for six hours. […] After the incubation with DAHP or the control incubation with the medium (MEM) alone, the rings were removed and then their relaxation in response to the analogue (or solvent NH4OH) was tested as above. Dose response curves of DAHP-treated tissues were compared to the control tissues treated in MEM alone for 6 hrs. The results are shown graphically in FIGS. 3 and 4. […] Thus WSG1002 is acting to enhance the ability of the endothelium to form NO and is not acting merely as a NO donor. The above procedures were used to mimic cardiovascular disease, by treating aorta and pulmonary artery rings with an inhibitor of the enzyme GTP cyclohydrolase, which is the rate-limiting step in the formation of tetrahydrobiopterin by cells. Treatment with this inhibitor, DAHP, for 6 hours reduced endogenous tetrahydrobiopterin levels in arteries to 4% of the normal content. […] This was found in both pulmonary artery and aorta (FIGS. 3 and 4). […] The only effect seen was a contraction—the opposite to the action of WSG1002—at the highest concentration of tetrahydrobiopterin. […] WSG1002 has an EC50 of approximately 10 nM.

Assay [4] relates to rat aorta. Kind of assay: Rat aorta ring relaxation (endogenous tetrahydrobiopterin present). To be noted: normal rings, phenylephrine-contracted. The procedure:
(§1) Rings (5 mm long) of rat pulmonary artery and aorta, were supported on a pair of intraluminal wires at 1 gm tension for one hour and then contracted with their EC50 phenylephrine concentration, which for pulmonary artery was 3.6×10^−8 M (derived from preliminary experiments) and for aorta was 11.8×10^−8 M (from the previously published literature). The rings were then relaxed with carbachol (10 μM). If the relaxation to carbachol was >75%, then the tissues were used to generate dose responses by addition of tetrahydrobiopterin (BH4) or the analogues. Stock BH4 was stored at −20° C. and the dilutions were prepared using saline just before adding the drug into the bath. Solutions of analogues were stored at 4° C. Cumulatively increasing concentrations of the analogues were added to the bath and the extent of relaxation was measured when it had stabilised. Another ring from the same rat was treated in parallel with the solvent for the analogue. The solvent used was NH4OH. The results are shown graphically in FIGS. 1 and 2.

Assay [5] has as its system rat pulmonary artery. Nature of the assay: Rat pulmonary artery ring relaxation (endogenous tetrahydrobiopterin present). The following applies: normal rings, phenylephrine-contracted. On the procedure:
as §1

In assay [6] the test system is eNOS. Nature of the assay: eNOS immunostaining in endothelium of small pulmonary arteries of treated rats. In kind it is in vivo, rat. To be noted: 14.1 mg/kg/day s.c. The procedure: Rats were maintained in a chamber containing atmospheric air at 550 mbar for 14 days. […] A group of normotensive and a group of pulmonary hypertensive rats received daily subcutaneous injections of WSG1002 in a dose of 14.1 mg/kg/day during the time that they were in the hypoxic chamber. Other groups of normotensive and pulmonary hypertensive rats had no drugs and are used as control comparison groups. These studies used lungs from the four groups of rats (1) pulmonary hypertensive and treated with WSG1002, (2) normotensive and treated with WSG1002, (3) pulmonary hypertensive and not treated with WSG1002 (4) normotensive and not treated with WSG1002. The rat lungs were fixed with 4% formaldehyde, wax embedded, and 3 μm thick sections were cut. The sections were mounted on silanated slides, rehydrated and treated with 0.3% H2O2 to block endogenous peroxidase activity. Antigens were unmasked by treatment in a microwave oven. […] In the endothelium, the intensity of staining was quantified on a scale of 0-3, where 0=no staining or the same as the negative control, 1=faint staining or staining in a few target cells, 2=moderate staining in most target cells, 3=the maximum staining observed with that antibody in the positive control slides.

SMILES strings stand for the structures. Entries after “also recorded” stand apart in the source; their conditions may differ.

T1 sequence (P29477 whole entry): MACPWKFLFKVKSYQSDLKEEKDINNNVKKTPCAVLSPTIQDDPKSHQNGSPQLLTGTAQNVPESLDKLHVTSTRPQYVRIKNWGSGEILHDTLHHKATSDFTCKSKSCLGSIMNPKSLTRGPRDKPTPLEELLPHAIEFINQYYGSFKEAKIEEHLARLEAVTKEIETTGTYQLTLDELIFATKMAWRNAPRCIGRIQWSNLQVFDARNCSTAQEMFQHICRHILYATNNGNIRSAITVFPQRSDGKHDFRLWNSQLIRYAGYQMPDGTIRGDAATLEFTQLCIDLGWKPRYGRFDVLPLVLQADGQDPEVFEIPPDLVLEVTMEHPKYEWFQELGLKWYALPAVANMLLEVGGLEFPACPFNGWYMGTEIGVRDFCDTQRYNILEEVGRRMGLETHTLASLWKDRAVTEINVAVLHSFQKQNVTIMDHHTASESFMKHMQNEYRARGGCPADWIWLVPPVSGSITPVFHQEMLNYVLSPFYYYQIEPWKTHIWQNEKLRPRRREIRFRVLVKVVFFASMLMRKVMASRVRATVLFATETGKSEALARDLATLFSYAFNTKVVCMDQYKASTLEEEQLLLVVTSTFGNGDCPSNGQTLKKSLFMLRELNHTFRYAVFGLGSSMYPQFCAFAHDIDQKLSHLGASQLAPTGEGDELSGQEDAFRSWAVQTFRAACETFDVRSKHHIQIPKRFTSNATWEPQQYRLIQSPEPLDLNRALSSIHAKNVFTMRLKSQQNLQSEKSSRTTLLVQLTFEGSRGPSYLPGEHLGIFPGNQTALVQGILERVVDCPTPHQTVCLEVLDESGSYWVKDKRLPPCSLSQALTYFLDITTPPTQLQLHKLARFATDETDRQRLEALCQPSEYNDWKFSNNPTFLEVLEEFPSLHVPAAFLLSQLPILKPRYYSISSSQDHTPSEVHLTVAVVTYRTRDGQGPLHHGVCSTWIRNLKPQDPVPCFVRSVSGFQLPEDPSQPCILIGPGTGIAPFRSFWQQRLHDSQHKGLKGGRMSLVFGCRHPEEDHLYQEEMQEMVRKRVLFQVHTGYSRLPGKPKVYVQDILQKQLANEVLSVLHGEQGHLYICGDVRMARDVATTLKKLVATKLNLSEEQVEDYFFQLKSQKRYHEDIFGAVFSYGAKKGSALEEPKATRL

In the case of `CC(=O)C1=Nc2c(nc(N)[nH]c2=O)NC1(C)C` [wsg1002, 6-Acetyl-2-amino-7,7-dimethyl-7,8-dihydro-3H-pteridin-4-one], in assay [1] (72 h, tested at 1 microM in macrophages, P = promotes NOS activity, read-out: iNOS effect *H155), the activation at 1 µM was 20 to 50%. In assay [1] (DAHP 10^-2 M depleted macrophages, 72 hrs), the “stimulation of nitric oxide synthesis vs controls” value is on record as “increases were statistically significant”. For the same compound, the “relaxation of rat aorta rings” value was “significant and physiologically important vasodilatation; also recorded: significant relaxation” in assay [2]; “no action; also recorded: no effect” in assay [4]. Further, the “relaxation of rat pulmonary artery rings” value in assay [3] (DAHP 10^-2 M for 6 h, tetrahydrobiopterin depleted) was “significant and physiologically important vasodilatation; also recorded: substantial relaxation”; in assay [5], “no action; also recorded: no effect”. In assay [3] (L-NAME 100 μM, same result in normal and DAHP-treated rings), the “relaxation of pulmonary artery ring in presence of L-NAME” value is “no relaxation”. The compound further displayed an EC50 in assay [3] (Rattus norvegicus, DAHP-treated artery rings, tissue not specified) of approximately 10 nM. The “eNOS staining in small pulmonary artery endothelium” value in assay [6] (normotensive rats) was “increased staining for eNOS”; in assay [6] (pulmonary hypertensive rats vs treated normotensive), “no further increase”.

In general, EC50 refers to the midpoint of the concentration-response curve. Low readings indicate an effect from little substance, high ones a need for much substance.
